Measurements taken from US8796245B2 (TetraPhase Pharmaceuticals, Inc., priority 2008, dated 2014).
Converted amounts (≈) assume the structure as drawn.

Legend:
Assay type in all cases: cell-based
[1] = test system: P. aeruginosa ATCC 27853 (PA111); assay: Minimum inhibitory concentration assay, PA111; conditions: Pseudomonas aeruginosa, ATCC27853; P. aeruginosa ATCC 27853, wt; read-out: MICs PA111
Experimental: (§1) Frozen bacterial strains were thawed and subcultured onto Mueller Hinton Broth (MHB) or other appropriate media (Streptococcus requires blood and Haemophilus requires hemin and NAD). Following incubation overnight, the strains were subcultured onto Mueller Hinton Agar and again incubated overnight. […] Isolated colonies were selected to prepare a starting inoculum equivalent to a 0.5 McFarland standard. The starting inoculum was diluted 1:125 using MHB for further use. Test compounds were prepared by dilution in sterile water to a final concentration of 5.128 mg/mL. Antibiotics (stored frozen, thawed and used within 3 hours of thawing) and compounds were further diluted to the desired working concentrations.
(§2) The assays were run as follows. Fifty μL of MHB was added to wells 2-12 of a 96-well plate. One hundred […] of appropriately diluted antibiotics was added to well 1. Fifty μL of antibiotics was removed from well 1 and added to well 2 and the contents of well 2 mixed by pipetting up and down five times. Fifty μL of the mixture in well 2 was removed and added to well 3 and mixed as above. Serial dilutions were continued in the same manner through well 12. Fifty μL was removed from well 12 so that all contained 50 μL. Fifty μL of the working inoculum was then added to all test wells. A growth control well was prepared by adding 50 μL of working inoculum and 50 μL of MHB to an empty well. The plates were then incubated at 37° C. overnight, removed from the incubator and each well was read on a plate reading mirror. The lowest concentration (MIC) of test compound that inhibited the growth of the bacteria was recorded.

[2] = test system: E. cloacae ATCC 13047 (EC108); assay: Minimum inhibitory concentration assay, EC108; conditions: Enterobacter cloacae, ATCC13047; E. cloacae ATCC 13047, wt; read-out: MICs EC108
Experimental: as §1, §2

[3] = test system: K. pneumoniae ATCC 13883 (KP109); assay: Minimum inhibitory concentration assay, KP109; conditions: Klebsiella pneumoniae, ATCC13883; K. pneumoniae ATCC 13883, wt; read-out: MICs KP109
Experimental: as §1, §2

[4] = test system: E. faecalis EF159 (tet resistant: tetM); assay: Minimum inhibitory concentration assay, EF159; conditions: Enterococcus faecalis, read-out: MICs EF159
Experimental: as §1, §2

[5] = test system: S. pneumoniae ATCC 49619 (SP106); assay: Minimum inhibitory concentration assay, SP106; conditions: Streptococcus pneumoniae, ATCC49619; S. pneumoniae ATCC 49619, wt; read-out: MICs SP106
Experimental: as §1, §2

[6] = test system: S. aureus ATCC 29213 (SA101, MSSA); assay: Minimum inhibitory concentration assay, SA101; conditions: Staphylococcus aureus; S. aureus ATCC 29213, MSSA control; read-out: MICs SA101
Experimental: as §1, §2

[7] = test system: A. baumanii ATCC 19606 (AB110); assay: Minimum inhibitory concentration assay, AB110; conditions: Acinetobacter baumannii, ATCC19606; A. baumanii ATCC 19606, wt; read-out: MICs AB110
Experimental: as §1, §2

[8] = test system: E. coli ATCC 25922 (EC107); assay: Minimum inhibitory concentration assay, EC107; conditions: Escherichia coli, ATCC25922; E. coli ATCC 25922, wt; read-out: MICs EC107
Experimental: as §1, §2

[9] = test system: S. pneumoniae SP160 (tet resistant: tet M); assay: Minimum inhibitory concentration assay, SP160; conditions: Streptococcus pneumoniae, read-out: MICs SP160
Experimental: as §1, §2

[10] = test system: E. faecalis ATCC 29212 (EF103); assay: Minimum inhibitory concentration assay, EF103; conditions: Enterococcus faecalis, ATCC29212, read-out: MICs EF103
Experimental: as §1, §2

[11] = test system: E. coli EC155 (tet resistant: tetA efflux); assay: microbe, parasite or virus in culture; conditions: Escherichia coli; E. coli tet resistant: tetA (efflux); read-out: MICs EC155
Experimental: as §1, §2

[12] = test system: K. pneumoniae KP153 (tet resistant: tetA efflux); assay: microbe, parasite or virus in culture; conditions: Klebsiella pneumoniae, read-out: MICs KP153
Experimental: as §1, §2

[13] = test system: S. aureus SA158 (tet resistant: tetK efflux); assay: microbe, parasite or virus in culture; conditions: Staphylococcus aureus, read-out: MICs SA158
Experimental: as §1, §2

[14] = test system: S. aureus ATCC 13709 (SA100, MSSA, Smith strain); assay: Minimum inhibitory concentration assay, SA100; conditions: Staphylococcus aureus; S. aureus ATCC 13709, MSSA Smith strain; read-out: MICs SA100
Experimental: as §1, §2

[15] = test system: S. aureus SA161 (tet resistant: tet(M) ribosomal protection); assay: Minimum inhibitory concentration assay, SA161; conditions: Staphylococcus aureus, read-out: MICs SA161
Experimental: as §1, §2

Structure (SMILES)	MIC [1]	MIC [2]	MIC [3]	MIC [4]	MIC [5]	MIC [6]	MIC [7]	MIC [8]	MIC [9]	MIC [10]	MIC [11]	MIC [12]	MIC [13]	MIC [14]	MIC [15]
CC(C)NCC(=O)Nc1cc(F)c2c(c1O)C(=O)C1=C(O)[C@]3(O)C(=O)C(C(N)=O)=C(O)[C@@H](N(C)C)[C@@H]3C[C@@H]1C2 [Compound 16]	16 µg/mL (≈ 29.3 µM)	1 µg/mL (≈ 1.83 µM)	1 µg/mL (≈ 1.83 µM)	0.0625 µg/mL (≈ 0.114 µM)	≤ 0.0156 µg/mL	0.125 µg/mL (≈ 0.229 µM)	1 µg/mL (≈ 1.83 µM)	0.5 µg/mL (≈ 0.915 µM)	≤ 0.0156 µg/mL	0.0625 µg/mL (≈ 0.114 µM)	8 µg/mL (≈ 14.6 µM)	4 µg/mL (≈ 7.32 µM)	0.5 µg/mL (≈ 0.915 µM)	0.25 µg/mL (≈ 0.457 µM)	0.25 µg/mL (≈ 0.457 µM)
CN(C)[C@@H]1C(O)=C(C(N)=O)C(=O)[C@@]2(O)C(O)=C3C(=O)c4c(O)c(NC(=O)CN5CC[C@@H](O)C5)cc(F)c4C[C@H]3C[C@@H]12 [Compound 39]	> 32 µg/mL	16 µg/mL (≈ 27.8 µM)	16 µg/mL (≈ 27.8 µM)	2 µg/mL (≈ 3.48 µM)	0.25 µg/mL (≈ 0.435 µM)	2 µg/mL (≈ 3.48 µM)	32 µg/mL (≈ 55.7 µM)	4 µg/mL (≈ 6.96 µM)	0.5 µg/mL (≈ 0.87 µM)	2 µg/mL (≈ 3.48 µM)	> 32 µg/mL	> 32 µg/mL	16 µg/mL (≈ 27.8 µM)	2 µg/mL (≈ 3.48 µM)	2 µg/mL (≈ 3.48 µM)
COC[C@H]1CCCN1CC(=O)Nc1cc(F)c2c(c1O)C(=O)C1=C(O)[C@]3(O)C(=O)C(C(N)=O)=C(O)[C@@H](N(C)C)[C@@H]3C[C@@H]1C2 [Compound 42]	> 32 µg/mL	16 µg/mL (≈ 26.6 µM)	8 µg/mL (≈ 13.3 µM)	1 µg/mL (≈ 1.66 µM)	0.125 µg/mL (≈ 0.207 µM)	0.5 µg/mL (≈ 0.83 µM)	0.5 µg/mL (≈ 0.83 µM)	4 µg/mL (≈ 6.64 µM)	0.0625 µg/mL (≈ 0.104 µM)	0.5 µg/mL (≈ 0.83 µM)	16 µg/mL (≈ 26.6 µM)	16 µg/mL (≈ 26.6 µM)	1 µg/mL (≈ 1.66 µM)	1 µg/mL (≈ 1.66 µM)	2 µg/mL (≈ 3.32 µM)
CCCCCNCC(=O)Nc1cc(F)c2c(c1O)C(=O)C1=C(O)[C@]3(O)C(=O)C(C(N)=O)=C(O)[C@@H](N(C)C)[C@@H]3C[C@@H]1C2 [Compound 26]	16 µg/mL (≈ 27.8 µM)	2 µg/mL (≈ 3.48 µM)	2 µg/mL (≈ 3.48 µM)	0.5 µg/mL (≈ 0.87 µM)	≤ 0.0156 µg/mL	1 µg/mL (≈ 1.74 µM)	0.25 µg/mL (≈ 0.435 µM)	0.5 µg/mL (≈ 0.87 µM)	≤ 0.0156 µg/mL	0.25 µg/mL (≈ 0.435 µM)	4 µg/mL (≈ 6.96 µM)	4 µg/mL (≈ 6.96 µM)	1 µg/mL (≈ 1.74 µM)	1 µg/mL (≈ 1.74 µM)	1 µg/mL (≈ 1.74 µM)
CCN(CC)CC(=O)Nc1cc(F)c2c(c1O)C(=O)C1=C(O)[C@]3(O)C(=O)C(C(N)=O)=C(O)[C@@H](N(C)C)[C@@H]3C[C@@H]1C2 [Compound 25]	32 µg/mL (≈ 57.1 µM)	2 µg/mL (≈ 3.57 µM)	2 µg/mL (≈ 3.57 µM)	0.0625 µg/mL (≈ 0.111 µM)	≤ 0.0156 µg/mL	0.125 µg/mL (≈ 0.223 µM)	0.125 µg/mL (≈ 0.223 µM)	0.5 µg/mL (≈ 0.892 µM)	≤ 0.0156 µg/mL	≤ 0.0156 µg/mL	8 µg/mL (≈ 14.3 µM)	8 µg/mL (≈ 14.3 µM)	0.0313 µg/mL (≈ 0.0558 µM)	0.125 µg/mL (≈ 0.223 µM)	0.125 µg/mL (≈ 0.223 µM)
COCCNCC(=O)Nc1cc(F)c2c(c1O)C(=O)C1=C(O)[C@]3(O)C(=O)C(C(N)=O)=C(O)[C@@H](N(C)C)[C@@H]3C[C@@H]1C2 [Compound 21]	16 µg/mL (≈ 28.4 µM)	4 µg/mL (≈ 7.11 µM)	2 µg/mL (≈ 3.56 µM)	1 µg/mL (≈ 1.78 µM)	≤ 0.0156 µg/mL	0.25 µg/mL (≈ 0.444 µM)	2 µg/mL (≈ 3.56 µM)	1 µg/mL (≈ 1.78 µM)	0.0625 µg/mL (≈ 0.111 µM)	0.125 µg/mL (≈ 0.222 µM)	16 µg/mL (≈ 28.4 µM)	8 µg/mL (≈ 14.2 µM)	4 µg/mL (≈ 7.11 µM)	0.25 µg/mL (≈ 0.444 µM)	0.5 µg/mL (≈ 0.889 µM)
CN(C)[C@@H]1C(O)=C(C(N)=O)C(=O)[C@@]2(O)C(O)=C3C(=O)c4c(O)c(NC(=O)CNCC(F)(F)F)cc(F)c4C[C@H]3C[C@@H]12 [Compound 22]	> 32 µg/mL	> 32 µg/mL	32 µg/mL (≈ 54.6 µM)	4 µg/mL (≈ 6.82 µM)	0.5 µg/mL (≈ 0.853 µM)	1 µg/mL (≈ 1.71 µM)	2 µg/mL (≈ 3.41 µM)	16 µg/mL (≈ 27.3 µM)	1 µg/mL (≈ 1.71 µM)	2 µg/mL (≈ 3.41 µM)	> 32 µg/mL	> 32 µg/mL	4 µg/mL (≈ 6.82 µM)	1 µg/mL (≈ 1.71 µM)	2 µg/mL (≈ 3.41 µM)
